The numbers were not newly measured in patent publication US20240374563A1, “ANTICHOLINERGIC COMPOUNDS FOR USE IN TREATING NEUROMUSCULAR DISORDERS” (UNIVERSITY OF MONTRÉAL, priority 2022, published 2024), which cites them from elsewhere.

The structures appear in SMILES notation.

This series relates to ALS patients. The settings on record: cited from earlier work.

On to `Nc1nc2ccc(OC(F)(F)F)cc2s1` [Riluzole], for which the “share of ALS patients who benefit” value is 20%.
